According to ChEMBL document CHEMBL4004883, “Biologically active perspective synthesis of heteroannulated 8-nitroquinolines with green chemistry approach” (Bioorg Med Chem Lett, 2017):
Values after ≈ are worked out from the molar mass of the structure shown.

Columns and labels:
[1] = Antioxidant activity assessed as assessed as ferric ion reducing activity by measuring absorbance at 700 nm at 60 ug/ml after 20 mins by spectrophotometric method; type: functional
[2] = Antioxidant activity assessed as DPPH radical scavenging activity after 20 mins by UV/VIS Spectrophotometric method; type: functional
Pseudomonas aeruginosa [3] = test: Antibacterial activity against Pseudomonas aeruginosa MTCC 102 incubated for 24 hrs under dark condition by microwell dilution method; type: functional; details: MTCC 102, 24 h
[4] = Antioxidant activity assessed as total antioxidant capacity measured as ascorbic acid equivalents at 100 ug/ml after 90 mins by phosphomolybdenum method; type: functional
MCF7 = test: Cytotoxicity against human MCF7 cells assessed as decrease in cell viability after 48 hrs by MTT assay; type: functional, cell-based; details: MCF7, 48 h
[5] = Antioxidant activity assessed as assessed as ferric ion reducing activity by measuring absorbance at 700 nm at 20 ug/ml after 20 mins by spectrophotometric method; type: functional
Staphylococcus aureus [6] = test: Antibacterial activity against Staphylococcus aureus MTCC 96 at 100 ug incubated for 24 hrs under dark condition by agar well diffusion method; type: functional; details: MTCC 96, 24 h, read-out: IZ
A549 = test: Cytotoxicity against human A549 cells assessed as decrease in cell viability after 48 hrs by MTT assay; type: functional, cell-based; details: A549, 48 h
Bacillus subtilis [7] = test: Antibacterial activity against Bacillus subtilis MTCC 121 at 100 ug incubated for 24 hrs under dark condition by agar well diffusion method; type: functional; details: MTCC 121, 24 h, read-out: IZ
Escherichia coli [8] = test: Antibacterial activity against Escherichia coli MTCC 1652 at 100 ug incubated for 24 hrs under dark condition by agar well diffusion method; type: functional; details: MTCC 1652, 24 h, read-out: IZ
Pseudomonas aeruginosa [9] = test: Antibacterial activity against Pseudomonas aeruginosa MTCC 102 at 100 ug incubated for 24 hrs under dark condition by agar well diffusion method; type: functional; details: MTCC 102, 24 h, read-out: IZ
[10] = Antioxidant activity assessed as total antioxidant capacity measured as ascorbic acid equivalents at 60 ug/ml after 90 mins by phosphomolybdenum method; type: functional
[11] = Antioxidant activity assessed as assessed as ferric ion reducing activity by measuring absorbance at 700 nm at 100 ug/ml after 20 mins by spectrophotometric method; type: functional
Escherichia coli [12] = test: Antibacterial activity against Escherichia coli MTCC 1652 incubated for 24 hrs under dark condition by microwell dilution method; type: functional; details: MTCC 1652, 24 h
[13] = Antioxidant activity assessed as total antioxidant capacity measured as ascorbic acid equivalents at 20 ug/ml after 90 mins by phosphomolybdenum method; type: functional
Staphylococcus aureus [14] = test: Antibacterial activity against Staphylococcus aureus MTCC 96 incubated for 24 hrs under dark condition by microwell dilution method; type: functional; details: MTCC 96, 24 h
Bacillus subtilis [15] = test: Antibacterial activity against Bacillus subtilis MTCC 121 incubated for 24 hrs under dark condition by microwell dilution method; type: functional; details: MTCC 121, 24 h

SMILES | OD [1] | IC50 [2] [µg/mL] | MIC (Pseudomonas aeruginosa [3]) [µg/mL] | Activity [4] [µgequiv/ml] | IC50 (MCF7) [µM] | OD [5] | zone of inhibition at 100 µg/disc (Staphylococcus aureus [6]) [mm] | IC50 (A549) [µM] | zone of inhibition at 100 µg/disc (Bacillus subtilis [7]) [mm] | zone of inhibition at 100 µg/disc (Escherichia coli [8]) [mm] | zone of inhibition at 100 µg/disc (Pseudomonas aeruginosa [9]) [mm] | Activity [10] [µgequiv/ml] | OD [11] | MIC (Escherichia coli [12]) [µg/mL] | Activity [13] [µgequiv/ml] | MIC (Staphylococcus aureus [14]) [µg/mL] | MIC (Bacillus subtilis [15]) [µg/mL]
N#CC1=C(N)OC2=C(CNc3c2cccc3[N+](=O)[O-])C1c1ccc(Br)cc1 (configuration not stated) | 0.095 | 125.08 (≈ 294 µM) | 37 (≈ 87 µM) | 5.67 | 24.7 | 0.071 | 20 | 34.8 | 20 | 18 | 20 | 2.98 | 0.134 | 25.5 (≈ 60 µM) | 1.5 | 10 (≈ 23.5 µM) | 12.5 (≈ 29.4 µM)
Cc1ccc(C2C3CNc4c(cccc4[N+](=O)[O-])C3=NN2c2ccccc2)cc1 (configuration not stated) | 0.096 | 185.06 (≈ 481 µM) | 200 (≈ 520 µM) | 10.2 | 72.8 | 0.082 | 12 | 45.8 | 12 | 10 | 8 | 5.23 | 0.145 | 80.5 (≈ 209 µM) | 3.33 | 50 (≈ 130 µM) | 50 (≈ 130 µM)
CCOc1ccc(C2C3CNc4c(cccc4[N+](=O)[O-])C3=NN2c2ccccc2)c(OCC)c1 (configuration not stated) | 0.085 | 170.8 (≈ 373 µM) | 55.5 (≈ 121 µM) | 9.47 | 65.7 | 0.068 | 19 | 50.9 | 23 | 19 | 18 | 5.75 | 0.098 | 34 (≈ 74.2 µM) | 2.46 | 10 (≈ 21.8 µM) | 7.5 (≈ 16.4 µM)
O=[N+]([O-])c1cc(Cl)cc2c1NCC1C2=NNC1c1ccc(Cl)cc1 (configuration not stated) | 0.083 | 169.33 (≈ 466 µM) | 100 (≈ 275 µM) | 11.8 | 78.5 | 0.072 | 13 | 95.1 | 10 | 8 | 14 | 6.27 | 0.091 | 97.5 (≈ 268 µM) | 3.47 | 55 (≈ 151 µM) | 60 (≈ 165 µM)
O=[N+]([O-])c1cccc2c1NCC1C2=NN(c2ccccc2)C1c1ccccc1 (configuration not stated) | 0.08 | 146.85 (≈ 396 µM) | 150 (≈ 405 µM) | 14.9 | 53.4 | 0.075 | 8 | 59.8 | 8 | 12 | 14 | 10.8 | 0.096 | 60 (≈ 162 µM) | 5.18 | 60 (≈ 162 µM) | 60 (≈ 162 µM)
CC1(C)S[C@@H]2[C@H](NC(=O)[C@H](N)c3ccccc3)C(=O)N2[C@H]1C(=O)O [AMPICILLIN] | – | – | 18.5 (≈ 52.9 µM) | – | – | – | 24 | – | 30 | 24 | 22 | – | – | 8.5 (≈ 24.3 µM) | – | 2.5 (≈ 7.15 µM) | 2.5 (≈ 7.15 µM)
O=[N+]([O-])c1cccc2c1NCC1C2=NN(c2ccccc2)C1c1ccc(F)cc1 (configuration not stated) | 0.1 | 205.13 (≈ 528 µM) | 55.5 (≈ 143 µM) | 11.2 | 46 | 0.092 | 20 | 23.2 | 18 | 21 | 18 | 7.36 | 0.112 | 17 (≈ 43.8 µM) | 4.02 | 10 (≈ 25.7 µM) | 12.5 (≈ 32.2 µM)
O=C1O[C@H]([C@@H](O)CO)C(O)=C1O [ASCORBIC ACID] | – | 28.02 (≈ 159 µM) | – | – | – | – | – | – | – | – | – | – | – | – | – | – | –
O=[N+]([O-])c1cccc2c1NCC1C2=NN(c2ccccc2)C1c1ccc(Cl)cc1 (configuration not stated) | 0.09 | 202.18 (≈ 499 µM) | 100 (≈ 247 µM) | 10.4 | 41.4 | 0.082 | 17 | 28.7 | 16 | 17 | 13 | 6.17 | 0.101 | 34 (≈ 84 µM) | 4.12 | 15 (≈ 37.1 µM) | 15 (≈ 37.1 µM)
COc1ccc(N2N=C3c4cc(Cl)cc([N+](=O)[O-])c4NCC3C2c2ccc(Cl)cc2)cc1 (configuration not stated) | 0.171 | 151.83 (≈ 324 µM) | 100 (≈ 213 µM) | 8.36 | 25.8 | 0.1 | 13 | 32 | 14 | 12 | 13 | 4.43 | 0.253 | 80.5 (≈ 172 µM) | 1.86 | 50 (≈ 107 µM) | 50 (≈ 107 µM)
COc1ccc(C2C(C#N)=C(N)OC3=C2CNc2c3cccc2[N+](=O)[O-])c(OC)c1 (configuration not stated) | 0.112 | 122.13 (≈ 301 µM) | 150 (≈ 369 µM) | 14.2 | 51.2 | 0.08 | 14 | 44.6 | 15 | 15 | 13 | 9.89 | 0.162 | 42.5 (≈ 105 µM) | 4.79 | 40 (≈ 98.4 µM) | 20 (≈ 49.2 µM)
O=[N+]([O-])c1cc(Cl)cc2c1NCC1C2=NNC1c1ccc(F)cc1 (configuration not stated) | 0.088 | 155.12 (≈ 447 µM) | 200 (≈ 577 µM) | 5.03 | 98.7 | 0.08 | 12 | 63.6 | 12 | 12 | 8 | 2.49 | 0.098 | 80.5 (≈ 232 µM) | 1.21 | 50 (≈ 144 µM) | 50 (≈ 144 µM)
Cc1cc(C(C)(C)C)c(O)c(C(C)(C)C)c1 | 0.448 | – | – | – | – | 0.329 | – | – | – | – | – | – | 0.612 | – | – | – | –
